Laboratory results: patent US6479487B1, “6, 9-disubstituted 2-[trans-(4-aminocyclohexyl)amino] purines” (Aventis Pharmaceuticals Inc., priority 1998, dated 2002)
Several values for one entry are separate records, joined by “and”; a condition that tells them apart may be missing. Equal entries are not always repeated. Structures can show the parent of a compound that is named as a salt. Where two headings read alike, the source gives them in different places.

Key:
A549 = test: In vitro tumor cell proliferation, A549; format: cell-based, human; settings: many values given with an undefined *, read-out: In vitro Tumor Cell Proliferation (IC50, μM) Lung A549
How it was run: (§1)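 Growth was quantified by sulforhodamine B staining of TCA-fixed cells after 3 days of drug plus 4 more days with fresh drug, or by CyQUANT after 3 days of drug and freezing at −80° C. Counted viable cells were plated and incubated overnight at 37° C before drug.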

cdk2/cyclin E = target: T1, cdk2/cyclin E (Homo sapiens, UniProt P24941); test: Cyclin-Dependent Kinase 2 Assay (cdk2/cyclin E, GST-Rb substrate); format: biochemical; settings: recombinant cdk2/cyclin E, 10 μM ATP, 30 min at 30° C., several values in a cell = separate determinations, read-out: CDK-2 Inhibition IC50
T1 construct: made in house; host or cells: insect cells (baculovirus co-infection)
Procedure: Substrate: GST-Rb as described above for cdk4/cyclin D1
Assay conditions for cdk2/cyclin E were identical to those for cdk4/cyclin D1 including the substrate. The concentration of recombinant cdk2/cyclin E in the assay was 0.1 μg per 100 μl assay. Incubation was for 30 min at 30° C.

HT-29 = test: In vitro tumor cell proliferation, HT-29; format: cell-based, human; settings: many values given with an undefined *, read-out: In vitro Tumor Cell Proliferation (IC50, μM) Colon HT-29
How it was run: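 HT-29 cells seeded overnight at 37° C, then exposed to drug for 3 days, refed with fresh drug-containing medium for 4 more days. Proliferation read by sulforhodamine B staining after TCA fixation; alternatively by CyQUANT after freezing plates at −80° C following 3 days' drug exposure.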

MDA-MB-231 = test: In vitro tumor cell proliferation, MDA-MB-231; format: cell-based, human; settings: sulforhodamine B or CyQUANT assay, many values given with an undefined *, read-out: In vitro Tumor Cell Proliferation (IC50, μM) Breast MDA-MB-231
How it was run: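 Cells plated overnight at 37 °C, then exposed to drug for 3 days, refed with fresh drug and incubated 4 more days. Read-out by sulforhodamine B staining after TCA fixation; alternatively, CyQUANT after 3-day drug exposure and freezing at −80 °C.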

MDA-MB-435 = test: In vitro tumor cell proliferation, MDA-MB-435; format: cell-based; settings: values given with an undefined *, read-out: In vitro Tumor Cell Proliferation (IC50, μM) Breast MDA-MB-435
How it was run: as §1

DMS-114 = test: In vitro tumor cell proliferation, DMS-114; format: cell-based, human; settings: many values given with an undefined *, read-out: In vitro Tumor Cell Proliferation (IC50, μM) Lung DMS-114
How it was run: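 Human small cell lung carcinoma DMS-114 cells plated overnight, then drug-treated for 3 days, medium and drug renewed, and incubated 4 more days. Growth read by sulforhodamine B staining after TCA fixation; alternatively by CyQUANT after 3 days' drug exposure and freezing at −80 °C.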

DU145 = test: In vitro tumor cell proliferation, DU145; format: cell-based, human; settings: many values given with an undefined *, read-out: In vitro Tumor Cell Proliferation (IC50, μM) Prostate DU145
How it was run: as §1

cdk4/cyclin D1 = target: T2, cdk4/cyclin D1 (Homo sapiens, UniProt P11802); test: Cyclin-dependent Kinase 4 Assay (cdk4/cyclin D1, GST-Rb substrate); format: biochemical; settings: cdk4/cyclin D1 insect cell lysate, 10 μM ATP, 30 min at 37° C., several values = separate determinations, read-out: CDK4 Inhibition IC50
T2 construct: made in house; host or cells: Sf9 insect cells (Bac-to-Bac baculovirus, pFastBac)
T2 sequence (P11802 whole entry): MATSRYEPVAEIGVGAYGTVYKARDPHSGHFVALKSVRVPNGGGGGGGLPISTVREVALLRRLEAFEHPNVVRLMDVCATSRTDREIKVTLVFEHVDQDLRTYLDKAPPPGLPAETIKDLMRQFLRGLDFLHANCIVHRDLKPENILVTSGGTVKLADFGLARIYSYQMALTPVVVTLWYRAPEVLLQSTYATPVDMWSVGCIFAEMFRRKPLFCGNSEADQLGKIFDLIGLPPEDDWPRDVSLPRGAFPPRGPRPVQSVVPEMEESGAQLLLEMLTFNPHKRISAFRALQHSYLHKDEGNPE
T2 sequence (P24385 whole entry partner): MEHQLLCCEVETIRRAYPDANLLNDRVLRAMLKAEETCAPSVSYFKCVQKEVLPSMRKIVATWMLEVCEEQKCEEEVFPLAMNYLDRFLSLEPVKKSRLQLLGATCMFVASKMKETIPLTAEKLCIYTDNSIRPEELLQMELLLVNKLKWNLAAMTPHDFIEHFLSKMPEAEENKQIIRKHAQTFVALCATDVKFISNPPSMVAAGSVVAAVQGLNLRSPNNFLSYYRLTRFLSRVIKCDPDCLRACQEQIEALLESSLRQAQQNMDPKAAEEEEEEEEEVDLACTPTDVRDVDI
How it was run: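 Insect-cell lysate of coexpressed cdk4/cyclin D1 (0.1 μg) acts on GST-Rb (0.5 μg) bound to glutathione-Sepharose, in 50 mM HEPES pH 7.5, 10 mM MgCl2, 1 mM EGTA. Reaction runs 30 min at 37 °C, then is stopped by filtration and TNEN washes. Rb phosphorylation read by scintillation counting; IC50 derived.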

PC-3 = test: In vitro tumor cell proliferation, PC-3; format: cell-based, human; settings: many values given with an undefined *, read-out: In vitro Tumor Cell Proliferation (IC50, μM) Prostate PC-3
How it was run: as §1

Colo-205 = test: In vitro tumor cell proliferation, Colo-205; format: cell-based; settings: values given with an undefined *, read-out: In vitro Tumor Cell Proliferation (IC50, μM) Colon Colo-205
How it was run: as §1

[1] = Homo sapiens, MDA-MB-231, MDA-MB-231
[2] = Homo sapiens, MDA-MB-435, MDA-MB-435
[3] = Homo sapiens, COLO 205, Colo-205

| IC50 (A549; Homo sapiens, A549, A549) | IC50 (cdk2/cyclin E) | IC50 (HT-29; HT-29, dihydrochloride) | IC50 (HT-29; Homo sapiens, HT-29, HT-29) | IC50 (MDA-MB-231; [1]) | IC50 (MDA-MB-231; MDA-MB-231, dihydrochloride) | IC50 (MDA-MB-435; [2]) | IC50 (MDA-MB-435; MDA-MB-435, dihydrochloride) | IC50 (DMS-114; DMS-114, dihydrochloride) | IC50 (DMS-114; Homo sapiens, DMS-114, DMS-114) | IC50 (DU145; DU145, dihydrochloride) | IC50 (DU145; Homo sapiens, DU-145, DU145) | IC50 (cdk4/cyclin D1) | IC50 (PC-3; Homo sapiens, PC-3, PC-3) | IC50 (PC-3; PC-3, dihydrochloride) | IC50 (Colo-205; [3]) | IC50 (MDA-MB-435; MDA-MB-435, trihydrochloride) | IC50 (DMS-114; DMS-114, trihydrochloride) | IC50 (DU145; DU145, trihydrochloride) | IC50 (PC-3; PC-3, trihydrochloride) | Compound | further results |
| --- | --- | --- | --- | --- | --- | --- | --- | --- | --- | --- | --- | --- | --- | --- | --- | --- | --- | --- | --- | --- | --- |
| 4.4 µM | 50 nM | 2.3 µM | 3.4 µM | 3 µM | 2.9 µM | 3.3 µM | 3.8 µM | 3.1 µM | 4.6 µM | 3.8 µM | 3.9 µM | 1500 nM and 1600 nM | 1.9 µM | 2.1 µM | 1.7 µM | – | – | – | – | N[C@H]1CC[C@H](Nc2nc(N[C@H]3CC[C@H](O)CC3)c3ncn(C4CCCC4)c3n2)CC1 [Example 145a, Trans-2-[Trans-(4-aminocyclohexyl)amino]-6-[(4-hydroxy)cyclohexylamino]-9-cyclopentylpurine dihydrochloride] | IC50 (A549; A549, dihydrochloride): 4.8 µM; IC50 (Colo-205; Colo-205, dihydrochloride): 1.6 µM |
| 0.17 µM | 410 nM and 97 nM and 440 nM | – | 0.32 µM | 0.35 µM | – | 0.42 µM | – | – | 0.32 µM | – | 0.22 µM | 2900 nM and 2100 nM | 0.24 µM | – | 0.2 µM | 0.408 µM | 0.33 µM | 0.33 µM | 0.34 µM | N[C@H]1CC[C@H](Nc2nc(NC3CCN(Cc4cccc5ccccc45)CC3)c3ncn(C4CCCC4)c3n2)CC1 [Example 147-a, 2-[Trans-(4-aminocyclohexyl)amino]-6-[4-[1-(1-naphthyl)methyl]piperidinylamino)-9-cyclopentylpurine trihydrochloride] | IC50 (MDA-MB-231; MDA-MB-231, trihydrochloride): 0.34 µM |
| 2.9 µM | 11 nM and 40 nM | 4.2 µM | 4.4 µM | 4.2 µM | 3.6 µM | 5.9 µM | 6 µM | 3.3 µM | 2.6 µM | 2.9 µM | 3 µM | 1000 nM and 710 nM | 3.2 µM | 3.5 µM | 2.8 µM | – | – | – | – | COCCCCNc1nc(N[C@H]2CC[C@H](N)CC2)nc2c1ncn2C1CCCC1 [Example 29, 2-[Trans-(4-aminocyclohexyl)amino]-6-(4-methoxybutylamino)-9-cyclopentylpurine dihydrochloride] | IC50 (A549; A549, dihydrochloride): 2.6 µM; IC50 (Colo-205; Colo-205, dihydrochloride): 4.6 µM |
| 0.22 µM | 100 nM and 240 nM | – | 0.42 µM | 0.47 µM | – | 0.48 µM | – | – | 0.94 µM | – | 0.34 µM | 2800 nM and 1800 nM | 0.33 µM | – | 0.34 µM | 0.78 µM | 0.47 µM | 0.36 µM | 0.58 µM | N[C@H]1CC[C@H](Nc2nc(NC3CCN(Cc4ccc(F)cc4F)CC3)c3ncn(C4CCCC4)c3n2)CC1 [Example 147-h, 2-[Trans-(4-aminocyclohexyl)amino]-6-[4-[1-(2,4-difluorobenzyl)piperidinylamino]-9-cyclopentylpurinetrihydrochloride] | IC50 (A549; A549, trihydrochloride): 0.16 µM; IC50 (HT-29; HT-29, trihydrochloride): 0.47 µM; IC50 (Colo-205; Colo-205, trihydrochloride): 0.21 µM |
| 0.3 µM | 250 nM and 160 nM and 340 nM | – | 0.42 µM | 0.37 µM | – | 0.41 µM | – | – | 0.71 µM | – | 0.33 µM | 2200 nM and 1700 nM | 0.37 µM | – | – | 0.69 µM | 0.46 µM | 0.38 µM | 0.45 µM | N[C@H]1CC[C@H](Nc2nc(NC3CCN(Cc4ccc(F)cc4Cl)CC3)c3ncn(C4CCCC4)c3n2)CC1 [Example 147-t, 2-[Trans-(4-aminocyclohexyl)amino]-6-[4-[1-(2-chloro-4-fluorobenzyl)]piperidinylamino]-9-cyclopentylpurine trihydrochloride] | IC50 (A549; A549, trihydrochloride): 0.28 µM; IC50 (HT-29; HT-29, trihydrochloride): 0.48 µM; IC50 (Colo-205; Colo-205, trihydrochloride): 0.36 µM |
| 3.4 µM | 160 nM | 4.8 µM | 4.6 µM | 4.4 µM | 4.9 µM | 11 µM | 10 µM | 3.3 µM | 2.8 µM | 5.2 µM | 5.5 µM | 1400 nM | 4.2 µM | 4.8 µM | 3.4 µM | – | – | – | – | N[C@H]1CC[C@H](Nc2nc(NCc3cccc4ccccc34)c3ncn(C4CCCC4)c3n2)CC1 [Example 7, 2-[Trans-(4-aminocyclohexyl)amino]-6-[(1-napthyl)methylamino]-9-cyclopentylpurine dihydrochloride] | IC50 (Colo-205; Colo-205, dihydrochloride): 3.5 µM |
| – | – | – | – | – | – | – | – | – | – | – | – | – | – | – | – | 0.5 µM and 0.57 µM | 0.34 µM and 0.42 µM | 0.28 µM and 0.36 µM | 0.33 µM and 0.44 µM | N[C@H]1CC[C@H](Nc2nc(NC3CCN(Cc4ccc(OC(F)(F)F)cc4)CC3)c3ncn(C4CCCC4)c3n2)CC1 [Example 147-z, 2-[Trans-(4-aminocyclohexyl)amino]-6-[4-[1-(4-trifluoromethoxybenzyl)]piperidinylamino]-9-cyclopentylpurine trihydrochloride] | IC50 (A549; A549, trihydrochloride): 0.18 µM and 0.3 µM; IC50 (cdk2/cyclin E; trihydrochloride): 720 nM and 1000 nM; IC50 (HT-29; HT-29, trihydrochloride): 0.43 µM and 0.44 µM; IC50 (MDA-MB-231; MDA-MB-231, trihydrochloride): 0.37 µM and 0.35 µM; IC50 (cdk4/cyclin D1; trihydrochloride): 7900 nM and 5700 nM; IC50 (Colo-205; Colo-205, trihydrochloride): 0.38 µM and 0.46 µM |
